We go through four compounds from the NIST ThermoML archive (doi:10.1016/j.fluid.2006.09.014).

Numbers after ± are expanded uncertainties.

The conditions of the data set: 298.15 K; 101.33 kPa; Liquid.
A word on the mass density: it is mass per unit of volume. For the compound `CC(=O)c1ccccc1` [acetophenone], the mass density was determined as 1023 ± 0.7 kg/m3.

Regarding `COc1ccccc1` [anisole], the mass density is 989.13 ± 0.21 kg/m3. Consider `Clc1ccccc1` [chlorobenzene], for which the mass density is 1100.9 ± 0.5 kg/m3. For the compound `Cc1ccccc1` [toluene], the mass density turned out to be 862.27 ± 0.23 kg/m3.
